According to patent US20140199346A1 (priority 2009, published 2014):
Entries after “also recorded” stand apart in the source; their conditions may differ.

Assays:
[1] = system: H1N1 subtype of influenza virus A/PR/8; assay: Test Example 1: oral administration to mice infected with influenza virus (1,000 pfu/mouse), body weights and survival rates; assay type: in vivo
Experimental: Test solutions were prepared for the test groups and control group shown in Table 1 below, respectively, and effects of oral administration of the solutions on mice infected with an influenza virus were examined. It should be noted that “Tamiflu dry syrup 3%” (product name, Chugai Pharmaceutical Co., Ltd.) was used as an anti-influenza drug oseltamivir.
As experimental animals, mice (C57BL/6NJc1, male, 6 weeks old) were used, and as the influenza virus, H1N1 subtype of influenza virus A/PR/8 was used. Infection of the mice with the influenza virus was carried out as follows. That is, the mice were placed in a container filled with isoflurane, and taken out after confirming that their breathing became slow. […] After confirming that the mice recovered from anesthesia, the mice were returned to breeding cages.
It should be noted that the culture solution of Aureobasidium (Test group 1) was orally administered every day during the test period by a sonde method once a day in an amount of 200 μL. […] The body weights of the mice after infection with the virus were measured every day, and transition of the body weights and survival rates were determined.

[2] = system: H1N1 subtype of influenza virus A/PR/8; assay: Test Example 2: oral administration to mice infected with influenza virus (2,000 pfu/mouse), body weights and survival rates; assay type: in vivo
Experimental: It should be noted that the phrase “dead bacterial cells of EF lactic acid bacterium” in the table means a commercially available heat-sterilized bacterial cell powder of Enterococcus faecalis.
Infection of mice used as experimental animals with the influenza virus was carried out so that the virus titer was twice as large as that in Test Example 1. That is, the infection was carried out in the same manner as in Test Example 1 except that a diluted virus solution having a virus titer of 4×10^4 pfu/mL was injected from both nasal cavities alternately using a micropipette in an amount of 50 μL (2,000 pfu/mouse).
That is, in the case of each of Test groups 3 to 5 and Control group 2, the test solution was orally administered every day during the test period by the sonde method once a day in an amount of 200 μL. […]
The body weights of the mice after infection with the virus were measured every day, and transition of the body weights and survival rates were determined.

[3] = system: H1N1 subtype of influenza virus A/PR/8; assay: Test Example 4: virus titer in lung of mouse (plaque count on MDCK cells); assay type: in vivo, mice
Experimental: In order to study mechanisms of the effects shown in Test Examples 1 to 3, influences on a virus titer in the lung of a mouse infected with the influenza virus were examined. Specifically, test solutions were prepared for the test groups and control group shown in Table 7 below, respectively, and orally administered, and the virus titer in the lung of each mouse infected with the influenza virus was examined. It should be noted that the phrase “dead bacterial cells of EF lactic acid bacterium” in the table means a commercially available heat-sterilized bacterial cell powder of Enterococcus faecalis.
That is, the mice were infected with the influenza virus in the same manner as in Test Example 2 except that the period after the beginning of administration of the test solutions was changed to one week. […] In the case of Test group 14, the test was carried out in the same manner as in Test group 13 except that the dead bacterial cells of the lactic acid bacterium (6.7×10^9 cells) were used in combination as a suspension in 200 μL of the culture solution of Aureobasidium. In addition, in the case of Test group 15, to which only oseltamivir was administered, in order to carry out comparison with the maximum effect of administration of only oseltamivir, oseltamivir was orally administered continuously every day (morning and evening, in an amount of 200 μL per dose) after virus infection.
The virus titer in the lung of a mouse was measured as follows.
On day 1, day 3, and day 5 of virus infection, three mice of each group were dissected, and the lung washed with PBS to remove blood was collected. The collected lung was crushed, and the tissue was separated as a cell suspension and then centrifuged at 5,000 rpm for 10 minutes. The supernatant was collected and used as a sample. The collected sample was diluted serially in 10-fold steps with 1×MEM to concentrations ranging from 10^−1 to 10^−6. On the other hand, MDCK cells were cultured from the previous day, and a state in which the MDCK cells (one sample: one 12-well plate) were proliferated to confluency was confirmed. Then, the medium of the MDCK cells was removed, and the cells were washed with 1 ml of PBS. PBS used for washing was removed, and each of the samples diluted serially was added in an amount of 100 μL, and then the plate was allowed to stand still in a 5% CO2 incubator (37° C.) for one hour. During incubation, the plate was shaken every 15 minutes to prevent the cells from drying. Subsequently, 2×MEM was mixed with an equal amount of a 1.6% agar solution, and trypsin was added so as to reach a final concentration of 0.0005% to prepare a MEM-agar solution. The solution was warmed in a water bath at 42° C. One hour later, the virus solution was removed, and the cells were washed with 1 ml of PBS. The prepared MEM-agar solution was added to each well in an amount of 1 ml, and the plate was allowed to stand for a while until the agar was solidified. After that, the cells were cultured in a 5% CO2 incubator (35° C.), and 48 hours later, the number of plaques was counted.

NK cells = system: NK cells; parameters: species or system mice; settings: mouse, in vivo
T cells = system: T cells; parameters: species or system mice; settings: mouse, in vivo

CCOC(=O)C1=C[C@@H](OC(CC)CC)[C@H](NC(C)=O)[C@@H](N)C1 [Test group 2, oseltamivir]
survival rate ([1]; 1,000 pfu/mouse, oral, until day 14 of infection, 3 mice): 100% | body weight increase at the end of the test (day 14 of infection) as compared to the first day of infection ([1]; individual mouse, 1,000 pfu/mouse): 5% | body weight at completion of the test ([1]; individual mouse, after recovery, day 14 of infection): same body weight as that on the first day of infection | body weight decrease at completion of the test as compared to the first day of infection ([1]; individual mouse, day 14 of infection): 3% | body weight decreased by up to ([1]; individual mouse, maximum loss after infection, 1,000 pfu/mouse): about 20%; also recorded: about 25% | body weights decreased by up to ([2]; mice whose body weight decreased): about 34% | mice died during the test period ([2]; oral, until day 17 of infection): 50% | Comparison of virus titers (virus titer for administration of PBS on each day after infection is defined as 1) ([3]; 1 day after infection): 1/5 | Comparison of virus titers (virus titer for administration of PBS on each day after infection is defined as 1) ([3]; 3 days after infection): 1/53 | Comparison of virus titers (virus titer for administration of PBS on each day after infection is defined as 1) ([3]; 5 days after infection): 1/89 | mouse lung virus titer ([3]; day 1 of infection): 5.88 log10 PFU | increase of lung virus titer as compared to day 1 of infection ([3]; day 3 of infection): 15.4 fold | mouse lung virus titer ([3]; day 3 of infection): 6.83 log10 PFU | increase of lung virus titer as compared to day 1 of infection ([3]; day 5 of infection): 122 fold | mouse lung virus titer ([3]; day 5 of infection): 7.76 log10 PFU | ratio of NK cells in viable cells in the lung (NK cells): about 1.8% | ratio of NK cells in viable cells relative to Control group (NK cells): about one-quarter | ratio of activated NK cells in the NK cells (NK cells): 46.2% | number of activated T cells relative to Control group 5 (T cells): about one-third | ratio of activated T cells in the T cells (T cells): 7.3%
